The record followed here is patent US7902227B2, “C-7 isoxazolinyl quinolone / naphthyridine derivatives useful as antibacterial agents” (Janssen Pharmaceutica NV., priority 2008, dated 2011).

Values after ≈ are worked out from the molar mass of the structure shown. Where only a bound is given, the exact number is not on record here.

What all share (assay type): cell-based
Assay [1] has as its system Staphylococcus aureus OC4172. The experiment in a line: In vitro antibacterial activity (MIC), microdilution broth method (NCCLS), strain A. As to conditions: cation adjusted Mueller-Hinton broth, 35° C., 16-20 hours. On the procedure:
(§1) Minimal inhibitory concentration (MIC) has been an indicator of in vitro antibacterial activity widely used in the art. The in vitro antimicrobial activity of representative compounds of the present invention was determined by the microdilution broth method following the test method from the National Committee for Clinical Laboratory Standards (NCCLS). This method is described in the NCCLS Document M7-A4, Vol. 17, No. 2, “Methods for Dilution Antimicrobial Susceptibility Test for Bacteria that Grow Aerobically—Fourth Edition”, which is incorporated herein by reference.
(§2) In this method two-fold serial dilutions of drug in cation adjusted Mueller-Hinton broth are added to wells in microdilution trays. The test organisms are prepared by adjusting the turbidity of actively growing broth cultures so that the final concentration of test organism after it is added to the wells is approximately 5×10^4 CFU/well.
(§3) Following inoculation of the microdilution trays, the trays are incubated at 35° C. for 16-20 hours and then read. […] The amount of growth in the wells containing the test compound is compared with the amount of growth in the growth-control wells (no test compound) used in each tray. As set forth in Table 4, representative compounds of the present invention were tested against a variety of pathogenic bacteria resulting in a range of activities depending on the organism tested.

In assay [2] the test system is strain B, fluoroquinolone-resistant clinical isolate of Streptococcus pneumoniae. The experiment in a line: In vitro antibacterial activity (MIC), microdilution broth method (NCCLS), strain B. The settings on record: read-out: In vitro Antibacterial Activity MIC, B. On the procedure: as §1, §2, §3
Assay [3] concerns strain C, fluoroquinolone-resistant clinical isolate of Streptococcus pneumoniae. The experiment in a line: In vitro antibacterial activity (MIC), microdilution broth method (NCCLS), strain C. As to conditions: read-out: In vitro Antibacterial Activity MIC, C. Here is the method: as §1, §2, §3
A general note: In broth dilution the organism is exposed to a series of concentrations in liquid medium.

In assay [4] the test system is strain D, fluoroquinolone-resistant clinical isolate of Streptococcus pneumoniae. The experiment in a line: In vitro antibacterial activity (MIC), microdilution broth method (NCCLS), strain D. As to conditions: read-out: In vitro Antibacterial Activity MIC, D. Here is the method: as §1, §2, §3
Assay [5] deals with Streptococcus pneumoniae ATCC 49619. The experiment in a line: In vitro antibacterial activity (MIC), microdilution broth method (NCCLS), strain E. As to conditions: ATCC49619, 35° C., 16-20 hours. Here is the method: as §1, §2, §3

Turning to `O=C(O)c1cn(C2CC2)c2cc(N3CC4ON=C(c5ccccn5)C4C3)c(F)cc2c1=O` (stereo not drawn) [ID No. 135, 1-Cyclopropyl-6-fluoro-7-[3-(pyridin-2-yl)-3a,4,6,6a-tetrahydro-pyrrolo[3,4-d]isoxazol-5-yl]-4-oxo-1,4-dihydro-quinoline-3-carboxylic acid], the minimum inhibitory concentration (MIC) (as a rule, the least concentration at which growth counts as inhibited) in assay [1] amounted to 0.03 µg/mL (≈ 0.0691 µM); in assay [2] it was 8 µg/mL (≈ 18.4 µM); in assay [3], 2 µg/mL (≈ 4.6 µM); in assay [4] it was 4 µg/mL (≈ 9.21 µM); in assay [5], 1 µg/mL (≈ 2.3 µM).
For the compound `COc1ccc(C2=NOC3CN(c4nc5c(cc4F)c(=O)c(C(=O)O)cn5-c4ccc(F)cc4F)CC23)cn1` (stereo not drawn) [ID No. 102, 1-(2,4-Difluoro-phenyl)-6-fluoro-7-[3-(6-methoxy-pyridin-3-yl)-3a,4,6,6a-tetrahydro-pyrrolo[3,4-d]isoxazol-5-yl]-4-oxo-1,4-dihydro-[1,8]naphthyridine-3-carboxylic acid], the minimal inhibitory concentration (MIC) came out at 0.06 µg/mL (≈ 0.112 µM) in assay [1]; 4 µg/mL (≈ 7.44 µM) in assay [2]; 16 µg/mL (≈ 29.8 µM) in assay [3]; 2 µg/mL (≈ 3.72 µM) in assay [4]; 1 µg/mL (≈ 1.86 µM) in assay [5].
In the same order, the values of `CCOC(=O)C1=NOC2CN(c3nc4c(cc3F)c(=O)c(C(=O)O)cn4-c3ccc(F)cc3F)CC12` (stereo not drawn) [ID No. 106, 1-(2,4-Difluoro-phenyl)-7-(3-ethoxycarbonyl-3a,4,6,6a-tetrahydro-pyrrolo[3,4-d]isoxazol-5-yl)-6-fluoro-4-oxo-1,4-dihydro-[1,8]naphthyridine-3-carboxylic acid] are 0.12 µg/mL (≈ 0.239 µM), greater than 16 µg/mL, greater than 16 µg/mL, greater than 16 µg/mL and 8 µg/mL (≈ 15.9 µM).
